Assays:
[1] = test system: HT-29 colon adenocarcinoma line; test: IL-8 secretion by TNF-α-stimulated HT-29 cells, supernatant with or without 5-ASA or Budesonide; format: cell-based; conditions: TNF-α 5 ng/ml, 6 h, 10% supernatant
Method: The HT-29 cells (ECACC) were inoculated into 24-well plates at 3×10^5 cells per well in McCoy's 5A (Gibco) medium supplemented with 10% fetal calf serum (FCS, Gibco) and incubated at 37° C./5% […] for 24 h. The cells were washed with PBS-1× (Gibco) and cultivated for an additional 24 h in McCoy's 5A medium at 2% FCS. The cells were then stimulated for 6 hours with 5 ng/ml of TNF-α in the presence of 10% of supernatant in stationary phase of DSM 33715 or of bacterial culture medium as control (ctrl), whether or not in the presence of anti-inflammatory agents. 5-ASA (10 mM) and budesonide (20 μM) are molecules used in the treatment of inflammatory diseases, such as ulcerative colitis and Crohn's disease. After 6 h, the cell culture supernatants were collected and stored at −80° C. until the […] was quantified by ELISA. The IL-8 assay was carried out by BioLegend specific ELISA, according to the manufacturer's instructions. The absorbance at 460 nm was read using the FluoStar Omega microplate reader of BMG Labtech. Statistics: Sidak's multiple comparisons test. * p<0.05, ** p<0.01, *** […], **** p<0.0001. […]

JAK/STAT pathway = test: JAK/STAT luciferase reporter in IFN-γ-stimulated HT-29 cells, supernatant with or without Tofacitinib; format: cell-based; conditions: 10% supernatant, Tofacitinib 1 μM, 6 h
Method: HT-29 cells at a density of 3×10^5 cells/well, in 24-well plate, were transfected according to a reverse-transfection protocol, with 200 ng of pGL4 luc2P GAS-RE (IFN-γ-dependent JAK/STAT signaling pathway) and 10 ng of pRL-TK vector (Promega), using X-tremeGENE HP DNA transfection reagent with a 3:1 ratio (Roche). To summarize, the reactive/DNA transfection complexes were prepared in a final volume of 50 μl of McCoy's 5A without serum and without antibiotic, the appropriate amount of each plasmid was added and homogenized, and then the transfection agent was added (3:1). The transfection complexes were carefully mixed and incubated at room temperature for 15 minutes. After incubation, the transfection complexes were added to the freshly resuspended HT-29 cells at the appropriate density in McCoy's 5A medium supplemented with 10% FCS, and then the cell/transfection complex mixtures were gently homogenized and placed on plates. The plates were incubated for 24 h in a humid atmosphere at 5% C02 and the medium was then replaced with medium at 2% FCS for 12 h, after washing with PBS IX. […]
The activity of the luciferase Firefly was read. Then 50 μl reagent Stop&Glo was added and the measurement of the Renilla activity was read with the FLUOstar Omega plate reader (BMG Labtech). […]

In the case of `Nc1ccc(O)c(C(=O)O)c1` [5-ASA], the “secretion of IL-8 reduced relative to the control (Panel A)” value ([1]; 5-ASA 10 mM) is reported as 38%.

In the case of `CCCC1O[C@@H]2C[C@H]3[C@@H]4CCC5=CC(=O)C=C[C@]5(C)[C@H]4[C@@H](O)C[C@]3(C)[C@]2(C(=O)CO)O1` (stereo partly drawn) [Budesonide], the “secretion of IL-8 reduced relative to the control (Panel B)” value ([1]; budesonide 20 μM) is reported as 38%.

With `C[C@@H]1CCN(C(=O)CC#N)C[C@@H]1N(C)c1ncnc2[nH]ccc12` [Tofacitinib] the “decrease in the IFN-γ-induced activation of the JAK/STAT pathway” value (JAK/STAT pathway) was 49%.

From patent publication US20250127824A1, “BACTERIAL STRAIN USED IN THE PREVENTION AND/OR TREATMENT OF INFLAMMATORY PATHOLOGIES” (VERB BIOTICS, priority 2021, published 2025)
